Data as given in ChEMBL document CHEMBL3390830, “Targeting epigenetic modifiers: Inhibitors of histone methyltransferases” (Medchemcomm, 2010).
Each block holds one compound with its values, some of them ahead of it.

Experiments:
[1] = molecular target: Histone-lysine N-methyltransferase Su(var)3-9 (Drosophila melanogaster, UniProt P45975); assay: Inhibition of Drosophila melanogaster Su(var)3-9
[2] = molecular target: T1, Histone-lysine N-methyltransferase EHMT2 (Homo sapiens, UniProt Q96KQ7); assay: Inhibition of G9a (unknown origin)
T1 sequence (Q96KQ7 whole entry): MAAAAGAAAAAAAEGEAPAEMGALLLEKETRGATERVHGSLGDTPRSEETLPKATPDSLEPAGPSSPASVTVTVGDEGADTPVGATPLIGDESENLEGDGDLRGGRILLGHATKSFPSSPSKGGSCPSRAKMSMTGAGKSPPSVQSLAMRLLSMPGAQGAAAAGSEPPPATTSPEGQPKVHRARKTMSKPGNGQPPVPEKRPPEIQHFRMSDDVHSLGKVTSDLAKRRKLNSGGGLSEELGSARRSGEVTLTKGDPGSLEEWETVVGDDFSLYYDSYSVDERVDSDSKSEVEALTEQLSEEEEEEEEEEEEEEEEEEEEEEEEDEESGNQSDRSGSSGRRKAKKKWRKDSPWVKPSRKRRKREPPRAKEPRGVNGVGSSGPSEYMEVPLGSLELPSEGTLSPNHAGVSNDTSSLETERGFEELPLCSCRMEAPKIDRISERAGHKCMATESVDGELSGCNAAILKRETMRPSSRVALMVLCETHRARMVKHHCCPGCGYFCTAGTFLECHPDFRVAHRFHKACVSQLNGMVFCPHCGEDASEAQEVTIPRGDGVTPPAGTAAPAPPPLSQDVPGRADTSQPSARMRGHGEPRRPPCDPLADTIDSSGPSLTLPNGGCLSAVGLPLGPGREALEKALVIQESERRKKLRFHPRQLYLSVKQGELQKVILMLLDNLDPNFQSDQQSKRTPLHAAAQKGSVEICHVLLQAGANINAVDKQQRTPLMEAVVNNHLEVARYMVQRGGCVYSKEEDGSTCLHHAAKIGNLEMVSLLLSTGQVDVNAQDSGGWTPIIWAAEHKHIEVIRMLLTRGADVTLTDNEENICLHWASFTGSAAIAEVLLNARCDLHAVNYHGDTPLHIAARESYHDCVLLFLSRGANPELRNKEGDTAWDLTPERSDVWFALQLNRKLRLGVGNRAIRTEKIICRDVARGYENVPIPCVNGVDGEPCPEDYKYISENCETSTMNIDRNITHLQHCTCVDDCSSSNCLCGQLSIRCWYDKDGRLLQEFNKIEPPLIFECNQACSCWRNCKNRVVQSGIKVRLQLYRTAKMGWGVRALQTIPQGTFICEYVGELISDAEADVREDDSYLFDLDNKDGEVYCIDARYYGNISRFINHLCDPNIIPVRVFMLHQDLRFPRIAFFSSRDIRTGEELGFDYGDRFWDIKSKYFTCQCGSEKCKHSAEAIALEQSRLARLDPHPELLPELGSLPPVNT

[3] = molecular target: T2, Protein arginine N-methyltransferase 1 (Homo sapiens, UniProt Q99873); assay: Inhibition of human PRMT1 using GST-tagged Npl3 as substrate preincubated for 15 mins followed by enzyme addition measured after 1 hr by colorimetric assay
T2 sequence (Q99873 whole entry): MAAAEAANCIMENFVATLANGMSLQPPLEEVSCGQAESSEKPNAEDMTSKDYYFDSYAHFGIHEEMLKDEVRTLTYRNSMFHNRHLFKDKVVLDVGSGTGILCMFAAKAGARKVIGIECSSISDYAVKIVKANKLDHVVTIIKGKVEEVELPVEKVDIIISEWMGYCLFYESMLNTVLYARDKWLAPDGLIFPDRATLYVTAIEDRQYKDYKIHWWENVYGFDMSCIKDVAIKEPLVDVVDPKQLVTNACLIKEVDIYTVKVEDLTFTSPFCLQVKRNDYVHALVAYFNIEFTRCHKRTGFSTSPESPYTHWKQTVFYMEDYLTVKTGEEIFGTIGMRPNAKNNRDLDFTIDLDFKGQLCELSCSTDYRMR

[4] = molecular target: T3, NAD-dependent protein deacetylase sirtuin-1 (Homo sapiens, UniProt Q96EB6); assay: Inhibition of recombinant human N-terminal GST-tagged full length SIRT1 expressed in Escherichia coli BL21(DE3) using ZMAL as substrate after 4 hrs by homogeneous fluorescent deacetylase assay
T3 sequence (Q96EB6 whole entry): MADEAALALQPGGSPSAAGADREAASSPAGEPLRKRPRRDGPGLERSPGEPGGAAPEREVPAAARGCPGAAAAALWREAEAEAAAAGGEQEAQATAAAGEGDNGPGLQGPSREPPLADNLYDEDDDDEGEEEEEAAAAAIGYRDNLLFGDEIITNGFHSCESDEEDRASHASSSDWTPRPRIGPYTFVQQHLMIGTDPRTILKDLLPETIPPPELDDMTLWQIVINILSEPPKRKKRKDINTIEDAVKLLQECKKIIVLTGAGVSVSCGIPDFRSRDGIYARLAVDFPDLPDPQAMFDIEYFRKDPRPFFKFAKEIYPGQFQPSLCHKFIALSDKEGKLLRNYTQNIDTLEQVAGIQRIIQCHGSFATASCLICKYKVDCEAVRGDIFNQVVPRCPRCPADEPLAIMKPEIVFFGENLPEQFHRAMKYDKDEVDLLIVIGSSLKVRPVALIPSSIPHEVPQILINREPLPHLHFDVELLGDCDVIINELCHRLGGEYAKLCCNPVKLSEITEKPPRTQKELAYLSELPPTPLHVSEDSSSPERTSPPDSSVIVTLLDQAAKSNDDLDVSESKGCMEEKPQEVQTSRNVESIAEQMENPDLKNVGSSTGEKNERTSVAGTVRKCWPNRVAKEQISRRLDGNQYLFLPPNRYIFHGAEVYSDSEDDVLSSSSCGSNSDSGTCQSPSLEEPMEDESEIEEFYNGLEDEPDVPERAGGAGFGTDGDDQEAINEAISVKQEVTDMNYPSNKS

[5] = molecular target: T2, Protein arginine N-methyltransferase 1; assay: Inhibition of GST-fused PRMT1 (unknown origin) expressed in Escherichia coli BL21 assessed as reduction of asymmetric H4R3me2 level by DELFIA assay
[6] = molecular target: T1, Histone-lysine N-methyltransferase EHMT2; assay: Inhibition of G9a (685 to 1000) (unknown origin) expressed in Escherichia coli BL21 assessed as reduction of H3K9me2 level by DELFIA assay
[7] = molecular target: T2, Protein arginine N-methyltransferase 1; assay: Inhibition of recombinant human GST-tagged PRMT1 assessed as inhibition of histone methylation

Histone-lysine N-methyltransferase Su(var)3-9, sequence (P45975 whole entry): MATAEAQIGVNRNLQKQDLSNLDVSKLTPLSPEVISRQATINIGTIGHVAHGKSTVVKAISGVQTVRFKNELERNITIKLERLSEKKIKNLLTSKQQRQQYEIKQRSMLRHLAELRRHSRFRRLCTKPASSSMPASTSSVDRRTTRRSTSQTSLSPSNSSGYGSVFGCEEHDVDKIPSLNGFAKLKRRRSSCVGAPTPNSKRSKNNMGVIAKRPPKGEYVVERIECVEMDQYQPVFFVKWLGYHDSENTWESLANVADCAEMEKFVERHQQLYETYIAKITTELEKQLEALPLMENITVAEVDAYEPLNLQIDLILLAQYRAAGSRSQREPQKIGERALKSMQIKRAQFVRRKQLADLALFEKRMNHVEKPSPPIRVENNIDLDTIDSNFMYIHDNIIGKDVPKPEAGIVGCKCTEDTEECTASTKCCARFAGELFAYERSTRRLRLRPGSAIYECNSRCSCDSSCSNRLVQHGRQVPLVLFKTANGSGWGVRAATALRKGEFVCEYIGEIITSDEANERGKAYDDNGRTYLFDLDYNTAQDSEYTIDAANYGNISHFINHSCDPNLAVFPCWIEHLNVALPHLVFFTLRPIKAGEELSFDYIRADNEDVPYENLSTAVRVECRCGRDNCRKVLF

- IC50 [4]: 32 µM
SMILES: O=C(Nc1ccc2c(O)cc(S(=O)(=O)O)cc2c1)Nc1ccc2c(O)cc(S(=O)(=O)O)cc2c1

- IC50 [5]: 6 µM
- IC50 [6]: 5 µM
SMILES: COc1ccc(C(=O)Oc2ccc(CCn3c(NC(=O)c4ccc(C(F)(F)F)cc4)nc4cc(C(=O)O)ccc43)cc2)cc1

- IC50 [7]: 4 µM
SMILES: COc1ccc(/N=N/c2c(S(=O)(=O)O)cc3cc(Cc4nc(Cl)nc(Cl)n4)ccc3c2O)cc1

Continued, compound first:

SMILES: CN1C(=O)[C@@]23C[C@]4([C@]56C[C@@]78SS[C@@](CO)(C(=O)N7[C@H]5Nc5ccccc56)N(C)C8=O)c5ccccc5N[C@@H]4N2C(=O)[C@]1(CO)SS3 [CHAETOCIN]
- IC50 [1]: 800 nM
- IC50 [2]: 2500 nM

SMILES: O=C1OC2(c3ccccc31)c1cc(Br)c(O)c(Br)c1Oc1c2cc(Br)c(O)c1Br [EOSIN]
- IC50 [3]: 1000 nM
